Results taken from ChEMBL document CHEMBL1128787, “Design of a new selective cysteine protease inactivator and its mechanistic implications” (Bioorg Med Chem Lett, 1995).

Assays:
[1] = molecular target: T1, Papain (Carica papaya, UniProt P00784); test: Kinetic parameter (Ki mM) was evaluated for the inactivation of papain
T1 sequence (P00784 whole entry): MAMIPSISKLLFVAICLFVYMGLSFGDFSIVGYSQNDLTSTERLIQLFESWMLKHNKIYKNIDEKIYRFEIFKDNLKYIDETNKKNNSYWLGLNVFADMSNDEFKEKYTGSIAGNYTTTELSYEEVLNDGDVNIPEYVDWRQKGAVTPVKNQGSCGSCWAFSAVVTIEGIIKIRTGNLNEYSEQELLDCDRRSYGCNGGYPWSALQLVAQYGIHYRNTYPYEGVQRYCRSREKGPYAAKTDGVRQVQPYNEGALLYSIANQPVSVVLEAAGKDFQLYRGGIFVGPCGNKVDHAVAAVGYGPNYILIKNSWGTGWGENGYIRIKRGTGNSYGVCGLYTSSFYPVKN

[2] = molecular target: T1, Papain; test: Kinetic parameter (Ki 1/min) was evaluated for the inactivation of papain
[3] = molecular target: T2, Cathepsin B (Homo sapiens, UniProt P07858); test: Kinetic parameter (kinact 1/min) was evaluated for the inactivation of cathepsin B
[4] = molecular target: T2, Cathepsin B; test: Kinetic parameter (Ki mM) was evaluated for the inactivation of cathepsin B

Ki [1]: 574 µM
Ki [2]: 0.208 min⁻¹
kinact [3]: 0.087 min⁻¹
Ki [4]: 367 µM
Compound: O=C(N[C@@H](Cc1ccccc1)[C@H]1CO1)OCc1ccccc1
